Test results published in ChEMBL document CHEMBL3217533, “Inhibition of Ras-Effector Interaction by Cyclic Peptides” (Medchemcomm, 2013).
Activity calls are given as the source filed them. No cut-off for these calls is given here. *1 amine or outer side, *2 acyl side, *3 side chain or, on linkers, in order; H or OH if unused. Where a SMILES comes first, the peptide text is derived from it. Bridges are numbered along the chain shown (N, C = ends). [ ]: non-standard residue; d: D form. dβ3h(hPhe) = O=C(C[C@@H](CCc1ccccc1)N[*:1])[*:2]; Phe(4-F) = N[C@@H](Cc1ccc(F)cc1)C(=O)O; X1 = CC(C)(CO[*:2])C(=O)C(=O)[*:1]; Pip = O=C(O)[C@@H]1CCCCN1

Assays:
GTPase KRas = GTPase KRas (Homo sapiens, UniProt P01116, G12V); assay: Inhibition of recombinant HA-tagged K-Ras G12V mutant (unknown origin) assessed as disruption of interaction with GST-tagged Raf-RBD after overnight incubation by HTRF assay
[1] = molecular target: T1, Tyrosine-protein phosphatase non-receptor type 2 (Homo sapiens) (UniProt P17706); assay: Binding affinity to TCPTP (unknown origin) up to 20 uM by fluorescence anisotropic assay
T1 sequence (whole entry): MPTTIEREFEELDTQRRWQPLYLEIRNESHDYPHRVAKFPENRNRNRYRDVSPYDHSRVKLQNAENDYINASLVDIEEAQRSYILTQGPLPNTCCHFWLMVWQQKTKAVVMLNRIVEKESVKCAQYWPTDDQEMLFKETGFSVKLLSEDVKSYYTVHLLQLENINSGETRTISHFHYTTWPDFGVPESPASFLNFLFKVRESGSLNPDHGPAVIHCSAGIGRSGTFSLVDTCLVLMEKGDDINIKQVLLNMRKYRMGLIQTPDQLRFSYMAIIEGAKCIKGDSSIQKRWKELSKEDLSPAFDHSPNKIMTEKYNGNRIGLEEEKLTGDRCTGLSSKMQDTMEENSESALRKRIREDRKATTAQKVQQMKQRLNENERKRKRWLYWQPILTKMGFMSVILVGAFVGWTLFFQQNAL

[2] = system: GTPase KRas (Homo sapiens), P01116 [G12V]; assay: Binding affinity to K-Ras G12V mutant (unknown origin) by surface plasmon resonance assay
[3] = molecular target: T2, Tyrosine-protein phosphatase non-receptor type 1 (Homo sapiens) (UniProt P18031); assay: Binding affinity to PTP1B (unknown origin) up to 20 uM by fluorescence anisotropic assay
T2 sequence (whole entry): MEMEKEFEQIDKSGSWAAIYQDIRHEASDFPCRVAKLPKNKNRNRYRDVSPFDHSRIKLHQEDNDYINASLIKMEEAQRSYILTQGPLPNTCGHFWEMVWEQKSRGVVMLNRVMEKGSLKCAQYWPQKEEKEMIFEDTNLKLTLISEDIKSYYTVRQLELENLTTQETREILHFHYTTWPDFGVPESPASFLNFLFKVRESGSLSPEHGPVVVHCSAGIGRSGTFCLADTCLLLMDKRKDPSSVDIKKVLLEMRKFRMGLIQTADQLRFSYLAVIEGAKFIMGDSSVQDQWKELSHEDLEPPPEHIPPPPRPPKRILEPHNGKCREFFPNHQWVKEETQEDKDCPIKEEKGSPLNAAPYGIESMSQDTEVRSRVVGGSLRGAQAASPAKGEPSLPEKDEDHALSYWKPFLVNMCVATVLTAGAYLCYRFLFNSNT

Albumin = Albumin (Bos taurus, UniProt P02769); assay: Binding affinity to bovine serum albumin up to 20 uM by fluorescence anisotropic assay; settings: cattle
[4] = molecular target: SH2 domain-containing protein 2A (Homo sapiens) (UniProt Q9NP31); assay: Binding affinity to GST-tagged TSAD SH2 domain (unknown origin) up to 20 uM by fluorescence anisotropic assay
[5] = Binding affinity to MBP-tagged VP35 (unknown origin) up to 20 uM by fluorescence anisotropic assay
[6] = system: GTPase KRas (Homo sapiens), P01116 [G12V]; assay: Inhibition of K-Ras G12V mutant (unknown origin) assessed as disruption of interaction with GST-tagged Raf-RBD at 10 uM after 60 mins by fluorescence microscopic-based bead binding assay
[7] = system: GTPase KRas (Homo sapiens), P01116 [G12V]; settings: 10 uM
[8] = system: GTPase KRas (Homo sapiens), P01116 [G12V]; assay: Inhibition of K-Ras G12V mutant (unknown origin) assessed as disruption of interaction with Tiam1 at 10 uM after 60 mins by fluorescence microscopic-based bead binding assay
[9] = system: GTPase KRas (Homo sapiens), P01116 [G12V]; assay: Inhibition of K-Ras G12V mutant in human H358 cells assessed as decrease in Mek phosphorylation up to 16 hrs; assay type: cell-based
[10] = system: GTPase KRas (Homo sapiens), P01116 [G12V]; assay: Inhibition of K-Ras G12V mutant in human H358 cells assessed as decrease in Erk phosphorylation up to 16 hrs; assay type: cell-based
[11] = system: GTPase KRas (Homo sapiens), P01116 [G12V]; assay: Inhibition of K-Ras G12V mutant in human A549 cells assessed as decrease in Mek phosphorylation up to 16 hrs; assay type: cell-based
[12] = system: GTPase KRas (Homo sapiens), P01116 [G12V]; assay: Inhibition of K-Ras G12V mutant in human A549 cells assessed as decrease in Erk phosphorylation up to 16 hrs; assay type: cell-based
[13] = system: GTPase KRas (Homo sapiens), P01116 [G12V]; assay: Inhibition of K-Ras G12V mutant (unknown origin) assessed as disruption fluorescein-labeled Raf binding to beads immobilized with K-Ras G12V mutant at 10 uM after 60 mins by fluorescence microscopic-based bead binding assay
[14] = system: GTPase KRas (Homo sapiens), P01116 [G12V]; assay: Binding affinity to K-Ras G12V mutant (unknown origin) after 2 hrs by fluorescence polarization-based spectrofluorimetric analysis

GTPase KRas, sequence (P01116 whole entry G12V): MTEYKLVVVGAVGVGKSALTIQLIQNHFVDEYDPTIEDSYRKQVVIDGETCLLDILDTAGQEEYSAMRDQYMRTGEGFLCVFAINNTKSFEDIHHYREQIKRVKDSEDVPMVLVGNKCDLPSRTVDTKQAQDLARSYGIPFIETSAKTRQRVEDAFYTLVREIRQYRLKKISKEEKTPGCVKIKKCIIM
GTPase KRas (Homo sapiens), P01116 [G12V], sequence (P01116 whole entry G12V): as above
SH2 domain-containing protein 2A (Homo sapiens), sequence (Q9NP31 whole entry, looked up, the tested form may be a part): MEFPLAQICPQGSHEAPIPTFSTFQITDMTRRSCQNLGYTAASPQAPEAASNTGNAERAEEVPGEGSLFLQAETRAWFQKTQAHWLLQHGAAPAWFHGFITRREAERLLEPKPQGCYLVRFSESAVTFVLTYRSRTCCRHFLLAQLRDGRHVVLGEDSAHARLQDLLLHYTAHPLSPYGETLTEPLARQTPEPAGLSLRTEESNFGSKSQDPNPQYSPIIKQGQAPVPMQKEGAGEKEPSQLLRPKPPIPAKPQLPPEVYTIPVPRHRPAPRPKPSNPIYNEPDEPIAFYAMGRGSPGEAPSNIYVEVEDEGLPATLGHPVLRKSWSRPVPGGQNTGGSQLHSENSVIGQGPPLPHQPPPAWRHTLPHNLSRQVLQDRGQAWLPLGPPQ
Albumin, sequence (P02769 whole entry, the tested form may be a part): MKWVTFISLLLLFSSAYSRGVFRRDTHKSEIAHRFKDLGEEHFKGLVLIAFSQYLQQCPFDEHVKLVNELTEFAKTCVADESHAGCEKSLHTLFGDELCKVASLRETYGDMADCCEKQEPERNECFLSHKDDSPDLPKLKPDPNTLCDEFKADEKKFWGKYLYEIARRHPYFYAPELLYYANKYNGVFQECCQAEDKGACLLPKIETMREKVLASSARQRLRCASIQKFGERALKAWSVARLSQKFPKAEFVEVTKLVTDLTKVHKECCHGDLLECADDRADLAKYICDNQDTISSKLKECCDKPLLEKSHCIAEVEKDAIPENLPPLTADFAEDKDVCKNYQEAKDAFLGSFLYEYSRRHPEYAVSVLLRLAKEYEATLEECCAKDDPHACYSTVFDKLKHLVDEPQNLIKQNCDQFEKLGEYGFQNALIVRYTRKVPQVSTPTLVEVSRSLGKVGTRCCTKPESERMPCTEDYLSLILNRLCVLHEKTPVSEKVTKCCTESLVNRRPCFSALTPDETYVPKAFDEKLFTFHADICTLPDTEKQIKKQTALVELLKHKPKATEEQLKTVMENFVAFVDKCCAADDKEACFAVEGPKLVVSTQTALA

Structure (SMILES): CC1(C)COC(=O)[C@H](Cc2ccccc2)NC(=O)[C@H](CCCNC(=N)N)NC(=O)[C@@H](Cc2ccc3ccccc3c2)NC(=O)[C@H](CCCNC(=N)N)NC(=O)[C@@H](Cc2ccccc2)NC(=O)[C@H](CCCN=C(N)N)NC(=O)[C@H](CCC(N)=O)NC(=O)C[C@@H](CCc2ccccc2)NC(=O)[C@@H]2CCCCN2C(=O)C1=O
- IC50 (GTPase KRas): 1100 nM

Structure (SMILES): CC1(C)COC(=O)[C@H](Cc2ccccc2)NC(=O)[C@H](CCCNC(=N)N)NC(=O)[C@H](Cc2ccc(O)cc2)NC(=O)[C@@H]2CCCN2C(=O)[C@H](Cc2ccc(O)cc2)NC(=O)[C@@H](Cc2ccccc2)NC(=O)[C@H](CCC(N)=O)NC(=O)C[C@@H](CCc2ccccc2)NC(=O)[C@@H]2CCCCN2C(=O)C1=O
- IC50 (GTPase KRas): 10000 nM

Structure (SMILES): CC(C)C[C@@H]1NC(=O)[C@@H](Cc2ccc3ccccc3c2)NC(=O)[C@H](CCCNC(=N)N)NC(=O)[C@@H](C(C)C)NC(=O)[C@H](CCCNC(=N)N)NC(=O)[C@H](C)NC(=O)[C@H](CCC(N)=O)NC(=O)C[C@@H](CCc2ccccc2)NC(=O)[C@@H]2CCCCN2C(=O)C(=O)C(C)(C)COC1=O
- IC50 (GTPase KRas): 2000 nM

Structure (SMILES): CCCC[C@H]1NC(=O)[C@H](Cc2ccc(F)cc2)NC(=O)[C@H](CCCN=C(N)N)NC(=O)[C@@H](Cc2ccc3ccccc3c2)NC(=O)[C@H](CCCN=C(N)N)NC(=O)[C@H](CCCN=C(N)N)NC(=O)[C@H](CCC(N)=O)NC(=O)C[C@@H](CCc2ccccc2)NC(=O)[C@@H]2CCCCN2C(=O)C(=O)C(C)(C)COC1=O
- Activity [1]: Active
- Activity [2]: Active
- Activity [3]: Active
- Activity (Albumin): Active
- Activity [4]: Active
- Activity [5]: Active
- inhibition [6]: Active
- inhibition [7]: Active
- inhibition [8]: Active
- inhibition [9]: inactive
- inhibition [10]: inactive
- inhibition [11]: inactive
- inhibition [12]: inactive
- inhibition [13]: Active

Structure (SMILES): CC(C)C[C@@H]1NC(=O)[C@H](CCC(=O)O)NC(=O)[C@H](c2ccccc2)NC(=O)[C@@H](Cc2ccccc2)NC(=O)[C@H](CCCN)NC(=O)[C@@H]2CCCN2C(=O)[C@H](CCC(N)=O)NC(=O)C[C@@H](CCc2ccccc2)NC(=O)[C@@H]2CCCCN2C(=O)C(=O)C(C)(C)COC1=O
- IC50 (GTPase KRas): 10000 nM

Structure (SMILES): CC1(C)COC(=O)[C@H](Cc2ccccc2)NC(=O)[C@H](CCCNC(=N)N)NC(=O)CNC(=O)[C@H](Cc2ccc(O)cc2)NC(=O)[C@@H](Cc2ccc3ccccc3c2)NC(=O)[C@H](CCCN)NC(=O)[C@H](CCC(N)=O)NC(=O)C[C@@H](CCc2ccccc2)NC(=O)[C@@H]2CCCCN2C(=O)C1=O
- IC50 (GTPase KRas): 1800 nM

Structure (SMILES): CC(C)C[C@@H]1NC(=O)[C@H](CCCNC(=N)N)NC(=O)[C@H](CCCNC(=N)N)NC(=O)[C@H](Cc2ccc(O)cc2)NC(=O)[C@H](Cc2ccc(F)cc2)NC(=O)[C@H](CCCNC(=N)N)NC(=O)[C@H](CCC(N)=O)NC(=O)C[C@@H](CCc2ccccc2)NC(=O)[C@@H]2CCCCN2C(=O)C(=O)C(C)(C)COC1=O ([Pip][dβ3h(hPhe)]QR[Phe(4-F)]YRRL; linker N-C via X1)
- Activity [1]: inactive
- Activity [14]: inactive
- Activity [3]: inactive
- Activity (Albumin): Not Active
- Activity [4]: inactive
- Activity [5]: inactive

Structure (SMILES): CCCC[C@H]1NC(=O)[C@@H](Cc2ccc3ccccc3c2)NC(=O)[C@@H](Cc2ccc3ccccc3c2)NC(=O)[C@@H](CCCCN)NC(=O)[C@H](CCCNC(=N)N)NC(=O)[C@H](Cc2ccc(F)cc2)NC(=O)[C@H](CCC(N)=O)NC(=O)C[C@@H](CCc2ccccc2)NC(=O)[C@@H]2CCCCN2C(=O)C(=O)C(C)(C)COC1=O
- IC50 (GTPase KRas): 10000 nM

Structure (SMILES): CC(C)[C@@H]1NC(=O)[C@@H](CC(N)=O)NC(=O)[C@H](CCCNC(=N)N)NC(=O)[C@H](CCCNC(=N)N)NC(=O)[C@H](Cc2ccc(F)cc2)NC(=O)[C@H](Cc2ccc(O)cc2)NC(=O)[C@H](CCC(N)=O)NC(=O)C[C@@H](CCc2ccccc2)NC(=O)[C@@H]2CCCCN2C(=O)C(=O)C(C)(C)COC1=O
- IC50 (GTPase KRas): 1200 nM

Structure (SMILES): C[C@@H]1NC(=O)[C@H](Cc2ccc(O)cc2)NC(=O)[C@H](CCCNC(=N)N)NC(=O)[C@@H]([C@H](C)O)NC(=O)CNC(=O)[C@H](CCC(N)=O)NC(=O)C[C@@H](CCc2ccccc2)NC(=O)[C@@H]2CCCCN2C(=O)C(=O)C(C)(C)COC(=O)[C@H](Cc2ccccc2)NC1=O
- IC50 (GTPase KRas): 2300 nM
